Measured values reported in patent EP2077274A1, “Synthetic analogs of human beta-defensins having antimicrobial, antiviral and chemotactic activity” (Ceinge Biotecnologie Avanzate s.c. a r.l., priority 2008, dated 2009).
No end group written: not given here.

How the values were obtained:
[1] = test system: Enterococcus faecalis ATCC 29212; experiment: Colony-forming unit (CFU) assay of antibacterial activity with NaCl dependence; format: cell-based; settings: 200 mM NaCl compared to absence of salt
Method: (§1) Colony-forming unit (CFU) assay of the antibacterial activity of the peptides against P.aeruginosa ATCC (American Type Culture Collection, Manassas, VA, USA) 27853, Enterococcus faecalis ATCC 29212 and Escherichia coli ATCC 25922 was performed. The strains were grown in aerobic conditions in tryptic soy broth (Difco Laboratories, Detroit, MI, USA) at 37°C. Cells from exponential-phase cultures were centrifuged, washed and suspended to a density of 1 x 10^5 CFU/mL in sterile 10 mM potassium phosphate buffer, pH 7.4, and incubated in the presence of the peptides. The incubation time was 2 h at 37°C. […] For salt dependence assay, NaCl in a range of concentrations potentially present in the airway surface fluid of normal subjects and CF patients (33), i.e., 0, 50, 100 and 200 mM NaCl, were included in the incubation buffer. The cells were then diluted serially in the same buffer, spread on tryptone-yeast (Difco Laboratories) plates and the colonies were counted after 18 h at 37°C. Each assay was performed in triplicate. Bactericidal activity (mean and SD of three assays) is expressed as the ratio between colonies counted and the number of colonies on a control plate.

[2] = test system: Escherichia coli ATCC 25922; experiment: as above; format: cell-based; settings: 200 mM NaCl compared to absence of salt
Method: as §1

P.aeruginosa ATCC 27853 = experiment: as above; format: cell-based
Method: as §1

monocytes = experiment: Chemotaxis assay (leukocyte migration, calcein fluorescence); format: cell-based, human
Method: (§2) Preparation of leukocytes-Monocytes and neutrophils were isolated as described in the StemSep Cell Technical Manual (Stem Cell Technologies, Vancouver, Canada). Briefly, to obtain neutrophils, buffy coats were diluted 1:20 in NH4Cl supplemented with 2 mM EDTA and incubated on ice for 20 min. Cell suspensions were centrifuged for 10 min at 600 X g at room temperature with the brake off and washed three times with phosphate buffered saline (PBS) supplemented with 2% foetal bovine serum and 2 mM EDTA. Cell viability was assessed by analysis of light scatter properties, and cell count was performed using a logical gate strategy based on Trucount tubes (Becton-Dickinson, San Jose, CA, USA). Neutrophils were purified from lysed buffy coats using StemSep negative selection system. To this purpose, 100x10^6 mononuclear cells from lysed buffy coats were incubated with 100 µL of custom antibody cocktail for human granulocytes enrichment (Stem Cell Technologies) for 45 min on ice. In addition, cell suspensions were incubated with 60 µL of magnetic colloid for 30 minutes on ice. Finally, the samples were run through a 0.3-inch column matrix in a negative selection system in which the unwanted cells were immunomagnetically labelled and bound to the magnetic column. Neutrophils, after the separation, were collected in the column flowthrough without antibody bound to their surface. In order to obtain monocytes, human buffy coats were layered over a Ficoll-Paque density gradient and spun at 600 X g for 30 min with the brake off. The mononuclear cell-rich fractions were washed three times with PBS supplemented with 2% foetal bovine serum (FBS) and 2 mM EDTA. Cell viability was assessed by analysis of light scatter properties, and cell count was performed using a logical gate strategy based on Trucount tubes (Becton-Dickinson). A custom antibody cocktail for human monocyte enrichment (Stem Cells Technologies) was used for immunomagnetic negative selection of monocytes. Mononuclear cells were incubated as above described for neutrophils. Both neutrophils and monocytes were resuspended in 5.0 mL of RPMI-1640 (Sigma-Aldrich, St Louis, MO, USA) without phenol red containing 10% heat-treated FBS. Calcein AM (Molecular Probes, Eugene, OR, USA) was added to the cell suspensions (5.0 mL) at a concentration of 5 µg/mL and the cells were incubated for 30 min at 37°C. Cell suspensions were washed twice with PBS and then resuspended in RPMI-FBS to the desired concentration.
(§3) Measurement of leukocytes migration-The chemotaxis assay of monocytes and neutrophils (90-95% of purity) was performed in 96-well disposable chemotaxis chambers (Neuroprobe, Gaithersburg, MD, USA) using polyvinyl-pyrrolidone-free polycarbonate membranes with an […] pore size for monocytes and with a […] pore size for neutrophils. Chemotaxis was measured by fluorescence detection, using the calcein fluorescence signal. The fluorescence was read in a microplate fluorescence reader (Victor 3 1420 Multilabel Counter, Perkin Elmer) with excitation/emission wave-length settings of 485/530 nm. We calculated the migration index as the ratio between the sample mean fluorescence (after subtraction of the negative control mean fluorescence)/positive control mean fluorescence. Each assay was performed in quadruplicate.

neutrophils = experiment: as above; format: cell-based, human
Method: as §2, §3

HSV-1 = HSV-1 infectivity plaque assay on Vero cell monolayers (co-exposure, virus pre-treatment, cell pre-exposure); format: cell-based; settings: for % of infectivity: peptide 20 µM, mean and SD of 3 replicates
Method: Vero cells were grown in Dulbecco's modified Eagle's medium (DMEM) supplemented with 10% foetal calf serum. HSV-1 carrying a IacZ gene driven by the cytomegalovirus (CMV) IE-1 promoter to express beta-galactosidase was propagated as described (33). Peptides were dissolved in DMEM with serum and used at different concentrations. All experiments were conducted in parallel with scrambled peptides and no-peptide controls. […] Non-penetrated viruses were inactivated by citrate buffer at pH 3.0 after the 45 min incubation with cells at 37°C. The cells were then incubated for 48 h at 37°C in DMEM supplemented with carboxymethylcellulose (CMC). Monolayers were fixed, stained with 5-bromo-4-chloro-3-indolyl-beta-D-galactopyranoside (X-gal) and plaque numbers were scored. Experiments were performed in triplicate and the percentage of inhibition was calculated with respect to no-peptide control experiments. ii) For "virus pre-treatment" experiments, approximately 2 x 10^4 plaque forming units (PFU) of HSV-1 were incubated in the presence of 20 µM of peptides for 45 min at 37°C, then titrated on Vero cell monolayers. iii) For "cell pre-exposure" experiments, Vero cells were incubated with 20 µM of peptides for 30 min at 4°C. Peptides were removed, and cells were washed with phosphate-buffered saline before being infected with serial dilutions of HSV-1 and incubated for 45 min at 37°C.
Monolayers were exposed to different concentrations (10, 50, 100, 250 and 500 µM) of each peptide for 24 h, and cell viability was evaluated with the LDH assay. There was no significant difference between the viability of cells exposed to the peptides and that of cells exposed to control (data not shown). Thus, we evaluated the antiviral activity of wild type peptides and their analogs in: co-exposure experiments (cell + virus + peptide at zero time); virus pre-treatment (virus + peptide incubation before cell infection); and cell pre-exposure (cell + peptide incubation before virus infection). This would allow to evaluate if, and in which phase, the peptides could inhibit the virus infectivity.
For co-exposure experiments, we incubated the peptides on the monolayers of Vero cells together with the virus inoculum for 45 min before low pH treatment. The reduced form of wild-type hBD1 and hBD3 and analogs 1C, 1 N, 3C, 3N were used in all subsequent experiments. […] No control (peptide excluded) inhibited HSV-1 infectivity under similar experimental conditions.

For “GIINTLQKYYCRVRGGRCAVLSCLPKEEQIGKCSTRGRKCCRRKK-OH (cysteines drawn unpaired) [hBD3 wt, reference compound]”, the “antibacterial activity, effect of NaCl” value [1] was “significantly inhibited”, the “antibacterial activity, effect of NaCl” value [2] was “significantly inhibited” and the “antibacterial activity, effect of NaCl” value (P.aeruginosa ATCC 27853; peptide 2.5 µM, 50 mM NaCl versus 0 mM NaCl) was “unaffected”. For the same substance, the “antibacterial activity, effect of NaCl” value (P.aeruginosa ATCC 27853; peptide 2.5 µM, 100 mM NaCl versus 0 mM NaCl, p<0.01) was “slightly inhibited”, the “antibacterial activity, effect of NaCl” value (P.aeruginosa ATCC 27853; peptide 2.5 µM, 200 mM NaCl versus 0 mM NaCl, p<0.001) was “greatly inhibited” and the “antibacterial activity, effect of NaCl” value (P.aeruginosa ATCC 27853; peptide 12.5 µM, 200 mM NaCl versus 0 mM NaCl, p<0.001) was “strongly inhibited”. For the same substance, the “chemotactic activity, effect of NaCl” value (monocytes; 200 mM NaCl) was “comparable to that obtained at 100 mM NaCl”, the “chemotactic activity, effect of NaCl” value (monocytes; NaCl between 100 and 150 mM, p<0.001) was “significantly increased” and the “chemotactic activity compared to wild-type hBD1” value (monocytes; peptide 1.25 µM) was “significantly higher”. The “chemotactic activity, effect of NaCl” value (neutrophils; NaCl from 100 to 150 mM, p<0.001) was “significantly reduced”, the “chemotactic activity compared to wild-type hBD1” value (neutrophils; peptide 1.25 µM) was “significantly lower activity” and the “% of infectivity” value (HSV-1; cell pre-exposure) was 14.5±2.3%. The “% of infectivity” value (HSV-1; co-exposure) was 23.4±2.5%, the “inhibition of HSV infectivity” value (HSV-1; co-exposure, peptide 50 µM, reduced form) was 100% and the “% of infectivity” value (HSV-1; virus pre-incubation) was 45±1.5%.
